# Test results as given in PMC4515083, “Selective Targeting of the TPX2 Site of Importin-α Using Fragment-Based Ligand Design” (Chemmedchem, 2015).
# Target: T1, ΔIBB-importin-α (importin-α1, KPNA2) (Mus musculus, UniProt P52293)
# T1 construct: modified pET-30a with TEV-cleavable His6/S-tag, tag cleaved; recombinant
# Assay: direct ITC
# Type: binding
# Text: direct ITC on ΔIBB-importin-α (importin-α1, KPNA2)
row,Structure (SMILES),Kd [mM]
1,NCCCC[C@H](NCc1ccc(-c2cccnc2)cc1)C(N)=O [compound 11],4 ± 0.5
2,NCCCC[C@H](NC(=O)c1ccc(-c2cccnc2)cc1)C(N)=O [compound 14],> 10
3,NCCCC[C@@H](NCc1ccc(-c2cccnc2)cc1)C(N)=O [compound 15],3.8 ± 0.4

# Other lines, results leading:
row,Kd [mM],Structure (SMILES)
1,1.3 ± 0.1,NCCCC[C@H](NCc1cccc(-c2cccnc2)c1)C(N)=O [compound 16]
2,0.9 ± 0.1,NCCCC[C@H](NCc1ccc(-c2cccnc2)s1)C(N)=O [compound 17]
